Experimental findings from patent US4866176A, “8-Piperazinyl-1,7-naphthyridine derivative having pharmaceutical activity” (SS Pharmaceutical Co., Ltd., priority 1986, dated 1989) are described below.

One assay concerns heart rate. Nature of the assay: Antiarrhythmic effect (chloroform, mice, ip). Format: in vivo. The conditions noted are these: positive = 1-200 per minute heart rate. As for the experimental part:
Mice, age 5 weeks and weighing approximately 25 g, 6 of which consisted one group, were given a test compound which was dissolved in a 0.01 N-0.1 N hydrochloric acid solution (ip). Ten (10) minutes thereafter the mice were put into a sealed container which was filled with chloroform, their chests were incised promptly after confirming the respiratory arrest, and the heart rate was counted. Those with a 1-200 per minute heart rate were judged as positive in their antiarrhythmic effect.

In another assay the test system is Edema. Nature of the assay: Antiinflammatory effect (carragenin-induced edema of rat foot, oral). Format: in vivo, Wister rats. The conditions noted are these: 30 mg/kg, carragenin 60 min after dosing, foot volume 3 hours thereafter. As for the experimental part: Wister rats (age 6 weeks), 5 of which consisted one group, were fasted for 18 hours and orally given a test compound which was dissolved or suspended in a 0.5% sodium carboxymethylcellulose (CMC-Na). Sixty (60) minutes after administration of the tested compound each rat was subcutaneously given 0.1 ml of 1% carragenin physiological saline at its right plantar, and 3 hours thereafter the volume of its foot (A) was measured. The rate of edematization was determined by the formula [(A-B)/B]×100, in which (A) is the thus-obtained volume of animals foot and (B) denots the corresponding volume before administration of the compound (B).
The rate of edematization of controls which were subcutaneously given 0.1 ml of 1% carragenin physiological saline at their right plantars was also determined in the same manner. The rate of edema inhibition was determined on each of the tested compounds according to the following equation: [formula]
The results are shown in Table 1, in which the compound numbers correspond those of Examples appearing hereinafter in this specification.

Assay [1] deals with right and left atrium muscles. Nature of the assay: Cardiotonic effect (positive inotropic effect on isolated guinea pig atrium muscles). More on the design: species or system Hartley male guinea pigs. The conditions noted are these: Cavia porcellus, 10^-5 g/ml, 32° C, maximum change of contractive force, read-out: Positive Inotropic Effect (% per the value obtained on controls). As for the experimental part:
Hearts of Hartley male guinea pigs, weighing 500-800 g, were taken out and their atrium muscles were enucleated in Krebs - hydrogencarbonate solution, to serve the same as samples for the test. The both ends of right and left atrium muscles with a spontaneous beat were fixed by means of Serres fines, and suspended, with their upper and lower portions being fixed, in a bath containing 20 ml of Krebs - hydrogencarbonate solution which was aerated by 95% O2 +5% CO2 at 32° C. Then contractive forces of the spontaneous beat were isometrically measured. After the samples were stabilized, the test compound dissolved in 1 N hydrochloric acid solution and diluted by physiological saline to a concentration of 10^-5 g/ml was charged into the bath. Maximum changes (%) of the contractive force after charging the test compound per the value obtained immediately before the charge were determined. The values obtained, which respresent a positive inotropic effect, were made a standard for the cardiotonic effect.

Structures are written as SMILES.

Consider `CC(=O)Nc1cc2cccnc2c(N2CCNCC2)n1` [Compound No. 1, 6-acetamido-8-(1-piperazinyl)-1,7-naphthyridine], for which the figures for the “Animals exhibited positive antiarrhythmic/Animals tested” value in the assay on heart rate (12.5 mg/kg) and with heart rate (25.0 mg/kg) were 5/6 and 4/6, respectively. In the assay on Edema, the “Edema Inhibition Rate (%)” value was 64.8%.
Turning to `CC(=O)Nc1cc2cccnc2c(N2CCN(C=O)CC2)n1` [compound 2], the activation at 10 µg/mL in assay [1] worked out at 35.8%. Moreover, the “Edema Inhibition Rate (%)” value in the assay with Edema turned out to be 35.0%.
In the case of `CC(=O)Nc1cc2cccnc2c(N2CCN(C(C)=O)CC2)n1` [compound 3], the activation at 10 µg/mL in assay [1] is 35.6%.
With `CC(=O)Nc1cc2cccnc2c(N2CCN(C(=O)c3ccccc3)CC2)n1` [compound 4], the “Animals exhibited positive antiarrhythmic/Animals tested” value was 2/6 with heart rate (12.5 mg/kg) and 4/6 in the assay on heart rate (25.0 mg/kg).
With `CC(=O)Nc1cc2cccnc2c(N2CCN(C(=O)c3ccc([N+](=O)[O-])cc3)CC2)n1` [compound 8, 6-acetamido-8-[4-(p-nitrobenzoyl)-1-piperazinyl]-1,7-naphthyridine], in the assay with Edema, the “Edema Inhibition Rate (%)” value is 28.6%.
Same read-out and setting: the value for `COc1ccc(C(=O)N2CCN(c3nc(NC(C)=O)cc4cccnc34)CC2)cc1` [compound 9] was 30.4%.
Take `COc1ccc(C(=O)N2CCN(c3nc(NC(C)=O)cc4cccnc34)CC2)cc1OC` [compound 10]: the activation at 10 µg/mL in assay [1] worked out at 16.7%.
Consider `COc1cc(C(=O)N2CCN(c3nc(NC(C)=O)cc4cccnc34)CC2)cc(OC)c1OC` [compound 11], for which the “Animals exhibited positive antiarrhythmic/Animals tested” value with heart rate (12.5 mg/kg) is given as 1/6; in the assay on heart rate (25.0 mg/kg) it was 6/6.
For `CC(=O)Nc1cc2cccnc2c(N2CCN(c3cccc(Cl)c3)CC2)n1` [compound 15], the “Animals exhibited positive antiarrhythmic/Animals tested” value in the assay on heart rate (12.5 mg/kg) and with heart rate (25.0 mg/kg) was 4/6 throughout.
As to `CC(=O)Nc1cc2cccnc2c(N2CCN(c3ccc(F)cc3)CC2)n1` [compound 17], the “Animals exhibited positive antiarrhythmic/Animals tested” value in the assay on heart rate (12.5 mg/kg) is 3/6; in the assay with heart rate (25.0 mg/kg), 5/6.
In the case of `CC(=O)Nc1cc2cccnc2c(N2CCN(Cc3ccccc3)CC2)n1` [compound 22], the activation at 10 µg/mL in assay [1] was determined as 16.7%. In addition, in the assay on Edema, the “Edema Inhibition Rate (%)” value was found to be 57.1%.
